In the METLIN SMRT retention time set (Domingo-Almenara et al. 2019):

Experiment: gradient 5% acetonitrile 3 min, to 50% in 2 min, to 85% in 15 min, held 3 min, 100 µL/min
Conditions: column: Zorbax Extend-C18 2.1 x 50 mm; eluents: water / acetonitrile, 0.1% formic acid
How it was run: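 Using water and acetonitrile that each contained 0.1% formic acid, mixtures of ~100 pure standards were separated at 100 μL/min on a Zorbax Extend-C18 column (2.1 × 50 mm, 1.8 μm). The HPLC fed a quadrupole time-of-flight mass spectrometer working in positive and negative ionization mode, with dead and dwell volumes of 40 μL and 900 μL. Data were acquired over 3 months. Retention time was read from computationally picked adduct peaks after manual inspection of each.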

SMILES	RP-LC retention time [s]
O=C(c1ccc2[nH]ccc2c1)N1CCN(C(=O)c2nnn3c2COC(c2ccccc2)C3)CC1 (stereo not drawn)	793
O=C(c1ccoc1)N1CCC(c2noc(C3CC3)n2)C1 (stereo not drawn)	694
COc1ccccc1CCC(=O)N1CCCn2nc(-c3ccc(C)cc3)cc2C1	1020
CCOc1ccc(S(=O)(=O)N2CCC(C(=O)N3CCN(C)CC3)CC2)cc1C	654
O=C(CCC[C@@H]1[C@H]2CCCN3CCC[C@@H](CN1C(=O)COc1ccc(Cl)cc1)[C@@H]23)N1CCOCC1	626
COc1ccc(N2CCN(c3cc(SCC(=O)NCC4CCCO4)ncn3)CC2)cc1 (stereo not drawn)	713
CCn1c(=O)oc2cc(-c3noc(-c4ccc(C)cc4)n3)ccc21	1060
CCOc1cc(=O)n2c(c1C(=O)N1CCCc3ccccc31)CCCC2	707
CC(C)c1ccc(-n2nc(N3CCN(C(=O)Cc4cccs4)CC3)ccc2=O)cc1	898
CCCS(=O)(=O)N1CCC(C2CCN(C(=O)NC)CC2)C1 (stereo not drawn)	659
COCc1nc(CCNC(=O)NC2CCCCC2)no1	691
O=C(Nc1ccc2c(c1)OCO2)C1CCCN(c2ncc(-c3ccc(F)cc3)cn2)C1 (stereo not drawn)	1060
Cc1ccc(C)c(N2CCN(c3ccnc(SCC(=O)Nc4cc(F)ccc4C)n3)CC2)c1	1040
CC1=C(c2ccc(C)c(C)c2)S(=O)(=O)N=C1N1CCC(C(=O)NC(C)Cc2ccco2)CC1 (stereo not drawn)	855
CCCN(C)CC1(O)CCC2(CCN(C(=O)c3ccc(Cl)s3)CC2)CC1	647
CC1=C(c2ccccc2)S(=O)(=O)N=C1N1CCCN(C(=O)Nc2cccc(F)c2)CC1	849
CN1C(=O)c2cc(C(=O)NCc3cccc(F)c3)nn2CC1(C)C(=O)NCc1ccc(F)cc1 (stereo not drawn)	760
Cc1ccc(NC(=O)c2cc3c(s2)CN(C2CCCC2)C3)c(C)c1	663
COc1ccc(NC(=O)C2CCCN(c3cnc4nccnc4c3)C2)cc1F (stereo not drawn)	726
CN(C)c1nc2ncn3c(=O)n(CC(=O)NC4CCCCC4)nc3c2s1	663
O=C(Cn1cnc2nc3c(cc2c1=O)CCCC3)N1CCN(c2ccccc2)CC1	748
CCCCC(=O)N1CC(c2nc(-c3ccc(F)cc3)no2)C2(CCOCC2)C1 (stereo not drawn)	904

SMILES	RP-LC retention time [s]
CN(CC1CCOC1)C(=O)Nc1cccc(Cl)c1 (stereo not drawn)	738
COc1ccc(-c2nc3cccnc3n2C2CCN(C(=O)Nc3cccc(OC)c3)C2)cc1 (stereo not drawn)	746
Cc1cc(S(=O)(=O)N2CC=C(c3cn(C)c4ncccc34)CC2)ccc1F	1050
CCOC(=O)CNC(=O)NCc1ccc2ncccc2c1	596
Cc1ccccc1CNC(=O)CCc1nnc2c3cc(-c4ccc(F)cc4)nn3ccn12	811
COc1ccccc1CNC(=O)C1CCN(C(=O)c2nn(C)c3c2CN(C(=O)C(C)C)CC3)CC1	681
Cn1nc(C(=O)N2CCCC(C(=O)Nc3ccccc3)C2)c2c1CCN(C(=O)c1ccc(F)cc1)C2 (stereo not drawn)	756
COc1ccc(N2CC(c3noc(-c4cccc(F)c4)n3)CC2=O)cc1OC (stereo not drawn)	847
Cc1ccc(C)c(S(=O)(=O)N2CCc3c(c(-c4nnc(-c5ccccc5F)o4)nn3C)C2)c1	1010
Cc1cccc(NC(=O)N2CCC(C)(C(=O)NCc3ccc(F)cc3)CC2)c1C	834
CC(C)CN1C(=O)c2cccn2CC1C(=O)NCC1CCCCC1 (stereo not drawn)	828
C=CCNC(=O)c1cnn(-c2cc(-c3nc(CC)no3)ccn2)c1C	845
CCNc1cc(N2CCC(CCC(=O)NCc3nc4ccccc4n3C)CC2)ncn1	554
O=C(c1ccc(F)c(F)c1)N1CCN(c2cc(-c3cccnc3)[nH]n2)CC1	615
O=C(Nc1ccc(Cl)c(N2CCCS2(=O)=O)c1)c1ccno1	676
Cc1ccc(NC(=O)C2CCCN(c3nc4ccsc4c(=O)n3-c3ccc(C)cc3)C2)cc1 (stereo not drawn)	996
COc1ccc(OC)c(S(=O)(=O)N2CCN(c3ccccn3)CC2)c1	594
CC(Oc1cccc(F)c1)C(=O)NCCOc1ccccc1 (stereo not drawn)	857
O=C(CCSCc1ccccc1F)N1CCN(c2ccccn2)CC1	645
COc1ccc(-c2noc(CN3N=NC4C(=O)N(c5cccc(F)c5)C(=O)C43)n2)cc1OC (stereo not drawn)	1260
Cc1nnc(-c2cn(CC(=O)Nc3ccc(Cl)cc3)c3ccccc23)o1	856
